Test results from paper PMC3225368, “A Conformational Switch in the Active Site of BT_2972, a Methyltransferase from an Antibiotic Resistant Pathogen B. thetaiotaomicron” (PLoS ONE, 2011).
Marks after values point to notes of the source that are not given here.

Target: T1, BT_2972 (Bacteroides thetaiotaomicron, UniProt Q8A3I2)
T1 construct: 257 amino acids with noncleavable N-terminal (His)6 tag; pGS21a, E. coli BL21 (DE3); monomer in solution; first 12 residues disordered
Assay: isothermal titration calorimetry
Format: binding
Details: 20 mM Tris-HCl pH 8.0, 200 mM NaCl, 24 °C; single-site model

T1 sequence (Q8A3I2 entry or part of it, change not shown): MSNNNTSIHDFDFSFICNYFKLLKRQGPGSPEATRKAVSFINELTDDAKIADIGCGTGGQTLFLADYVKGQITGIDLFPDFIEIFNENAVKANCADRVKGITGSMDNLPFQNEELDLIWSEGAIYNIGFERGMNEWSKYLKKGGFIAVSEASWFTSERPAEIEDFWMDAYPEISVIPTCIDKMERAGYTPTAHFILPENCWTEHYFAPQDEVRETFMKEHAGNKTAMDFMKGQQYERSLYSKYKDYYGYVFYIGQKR

## Nc1ncnc2c1ncn2[C@@H]1O[C@H](CSCC[C@H](N)C(=O)O)[C@@H](O)[C@H]1O [AdoHcy]
  Ka: 3.498×10^5 (±0.66×10^5)

## C[S+](CC[C@H](N)C(=O)O)C[C@H]1O[C@@H](n2cnc3c(N)ncnc32)[C@H](O)[C@@H]1O (some centres unmarked) [AdoMet]
  Ka: 0.395×10^5 (±0.0435×10^5)
